Assay results taken from US20230160909A1, “NOVEL ION CONDUCTING CHANNEL FUSION SUBUNITS AND METHODS OF USE THEREOF” (UNIVERSITE DE BORDEAUX, priority 2020, published 2023).

Experiments:
Format in all cases: cell-based
TREK1 = molecular target: T1, TREK1 (Homo sapiens, UniProt O95069); assay: mNeon-KBP-nLuc-TREK1 BRET probe in HEK293T cells; settings: repeated activation with increasing quantities, FIG. 10A
T1 construct: expressed in transfected cells; host or cells: HEK293T
T1 sequence (O95069 1-426): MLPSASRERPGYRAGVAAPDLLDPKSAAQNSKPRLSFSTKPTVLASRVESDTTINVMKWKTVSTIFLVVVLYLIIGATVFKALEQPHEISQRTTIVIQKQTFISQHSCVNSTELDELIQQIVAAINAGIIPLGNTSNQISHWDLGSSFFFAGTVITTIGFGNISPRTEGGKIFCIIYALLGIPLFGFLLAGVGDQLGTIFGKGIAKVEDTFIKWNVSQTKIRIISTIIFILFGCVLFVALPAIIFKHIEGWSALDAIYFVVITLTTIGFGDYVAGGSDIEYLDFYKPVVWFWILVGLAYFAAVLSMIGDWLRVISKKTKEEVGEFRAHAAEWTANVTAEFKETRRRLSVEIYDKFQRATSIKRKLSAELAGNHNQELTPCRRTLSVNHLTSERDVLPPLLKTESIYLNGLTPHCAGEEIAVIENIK
Excerpt: (§1) B) Kinetic measurement of the effect of KCl injection on the BRET measured from HEK293T cells transiently expressing mNeon-Calflux-nLuc-KiR6.1 BRET probe. C) Kinetic measurement of the effect of Deltamethrine injection on the BRET measured from HEK293T cells transiently expressing mNeon-SOFI-nLuc-NaV1.8 BRET probe.
(§2) TREK1 BRET probe was activated using the chemical activator BL1249. Kir6.1 BRET probe was activated using KCl. Following depolarization, a strong outward potassium current is known to occur in HEK293T cells. Extracellular potassium ions would therefore be expected to re-enter the cells through ectopically-expressed inward rectifying ion channels such as KiR6.1, thereby increasing the local concentration of potassium in the intracellular vicinity of the KiR ion channel. NaV1.8 was activated in the presence of Deltamethrin, a pyrethroid toxin that is known to prolong the open state of tetrodotoxin-resistant sodium channels. […] While surprising, this observation could nonetheless be explained knowing that TREK1 trigger hyperpolarisation of the cell membrane by allowing potassium to leak outside cells, thus lowering the intracellular potassium concentration which will tend to balance with the extracellular potassium concentration. In that conditions, it has been shown that potassium will inwardly flow through TREK1 opened pore, which is in line with our observations.

KiR6.1 = molecular target: T2, KiR6.1 (Homo sapiens, UniProt Q15842); assay: mNeon-KBP-nLuc-KiR6.1 BRET probe in HEK293T cells; settings: KCl depolarisation, FIG. 10B
T2 construct: expressed in transfected cells; host or cells: HEK293T
T2 sequence (Q15842 1-424): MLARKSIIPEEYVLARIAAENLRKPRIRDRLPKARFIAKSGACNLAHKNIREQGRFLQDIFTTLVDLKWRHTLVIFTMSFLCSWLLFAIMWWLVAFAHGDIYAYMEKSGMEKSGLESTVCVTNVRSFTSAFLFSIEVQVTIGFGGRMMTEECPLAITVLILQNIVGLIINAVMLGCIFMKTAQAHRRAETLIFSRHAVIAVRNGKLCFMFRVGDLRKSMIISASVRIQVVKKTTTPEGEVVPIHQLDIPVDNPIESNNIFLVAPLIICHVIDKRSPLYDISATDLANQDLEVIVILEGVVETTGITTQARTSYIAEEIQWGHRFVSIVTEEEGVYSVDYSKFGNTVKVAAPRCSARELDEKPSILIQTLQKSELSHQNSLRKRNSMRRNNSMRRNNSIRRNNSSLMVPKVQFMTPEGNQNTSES
Excerpt: […] C) Kinetic measurement of the effect of Deltamethrine injection on the BRET measured from HEK293T cells transiently expressing mNeon-SOFI-nLuc-NaV1.8 BRET probe.
as §2

TRPV1 ion channel = molecular target: T3, TRPV1 ion channel (Homo sapiens, UniProt Q8NER1); assay: mNeonGreen-Calflux-nLuc-hTRPV1 BRET biosensor in HEK293T cells; settings: for inhibition of CAPS-induced BRET increase: FIG. 8C/8E
T3 construct: expressed in transfected cells; host or cells: HEK293T

NaV1.8 = molecular target: T4, NaV1.8 (Homo sapiens, UniProt Q9Y5Y9); assay: mNeon-SOFI-nLuc-NaV1.8 BRET probe in HEK293T cells; settings: FIG. 10C
T4 construct: expressed in transfected cells; host or cells: HEK293T
Excerpt: as §1, §2

TRPM8 = molecular target: T5, TRPM8 (Homo sapiens, UniProt Q7Z2W7); assay: mNeonGreen-Calflux-nLuc-hTRPM8 BRET probe in HEK293T cells
T5 construct: expressed in transfected cells; host or cells: HEK293T
Protocol: (§3) B) Dose response curve of the TRPM8 agonist WS12 to trigger activation of the mNeon-Calflux-nLuc-hTRPM8 BRET probe transiently expressed in HEK293T cells that were pre-treated or not with 10 μM of the TRPM8 antagonist M8B hydrochloride. C) Dose response curve of the PIEZO1 agonist YODA1 to trigger activation of the mNeon-Calflux-nLuc-PIEZO1 BRET probe transiently expressed in HEK293T cells. Data represent the average of at least three independent experiments.
(§4) As described above in Examples 7 and 8, the intramolecular BRET biosensor probes hTRPM8-nLuc-Calflux-mGreen and hTRPV4-nLuc-Calflux-mGreen have been prepared wherein the DNA sequence encoding the human protein TRPM8 is fused in C-terminal to a calflux-based calcium BRET sensor, said sensor being sandwiched between the nano luciferase and mNeonGreen. In an effort to exemplify and validate the concept of Calcium sensor-based BRET probes fused to other ion channels, we first assessed whether the activity of two other TRPs ion channels, TRPV4 and TRPM8, could also be measured using such BRET probes. […] The measured half-maximal responses were consistent with those reported in the literature using patch-clamp or calcium-flux measurements on cells transiently expressing TRPV4 or TRPM8.

TRPV4 = molecular target: T6, TRPV4 (Homo sapiens, UniProt Q9HBA0); assay: mNeonGreen-Calflux-nLuc-hTRPV4 BRET probe in HEK293T cells
T6 construct: expressed in transfected cells; host or cells: HEK293T
Protocol: as §3, §4

PIEZO1 channel = molecular target: T7, PIEZO1 channel (Homo sapiens, UniProt Q92508); assay: mNeonGreen-Calflux-nLuc-PIEZO1 BRET probe in HEK293T cells; settings: FIG. 9C
T7 construct: expressed in transfected cells; host or cells: HEK293T
Protocol: as §3
This confirms the functionality of our calcium sensor-based BRET Probe targeting PIEZO1.

TRPV1 channel = molecular target: T8, TRPV1 channel (Homo sapiens, UniProt Q8NER1); assay: hTRPV1-nLuc-Calflux-YFP (or mNeonGreen) BRET probe in HEK293T cells
T8 construct: expressed in transfected cells; host or cells: HEK293T

[1] = molecular target: T9, NR1-nLuc-Calflux-YFP/NR2B ion channels (NMDA receptors) (Homo sapiens, UniProt Q05586+Q13224); assay: NR1-nLuc-Calflux-YFP BRET probe coexpressed with NR2B in HEK293T cells; settings: read-out: EC50 of activation of NR1-nLuc-Calflux-YFP/NR2B
T9 construct: expressed in transfected cells; host or cells: HEK293T
Excerpt: (§5) FIG. 7: Dose-response for NMDA as measured in HEK293T cells transiently expressing the NR1-nLuc-Calflux-YFP probe alone (A) or coexpressed with NR2A (B) or NR2B (C) subunits.
(§6) We have constructed a novel BRET probe allowing to measure the activity of NMDA receptors by coupling the cDNA of the NR1 subunit to the BRET sensor nLuc-Calflux-YFP (FIG. 7). NMDA receptors are heterotetramers comprising 2 NR1 subunits and 2 NR2 or NR3 subunits. The subunits NR1, NR2 or NR3 expressed separately cannot form functional receptors.

NR1 subunit = molecular target: T10, NR1 subunit (Homo sapiens, UniProt Q05586); assay: NR1-nLuc-Calflux-YFP BRET probe expressed alone in HEK293T cells; settings: increasing dose, FIG. 7A
T10 construct: expressed in transfected cells; host or cells: HEK293T
Excerpt: as §5, §6

[2] = tested on: potassium channel SK3 (KCa2.3); assay: SK3-nLuc-KBP-mNeonGreen BRET probe in HEK293T cells; settings: different concentrations, FIG. 5B
Excerpt: FIG. 5: is a schematic representation of the SK3-nLuc-KBP-mNeonGreen probe (A) and the measure of BRET signal as obtained during the activation of the channel in presence of lonomycine (B).
The novel BRET probe has been constructed to measure the activity of potassium channel SK3 (KCa2.3) by coupling the cDNA of the SK3 channel to a potassium sensor (protein KBP, Ashrafet KU al., 2016, Structure 24, 741-749) sandwiched in between luciferase and mNeonGreen (SK3-nLuc-KBP-mNeonGreen, See FIG. 5A).
The BRET sensor is based on KBP which has been published (Bischof H et al, 2017, Nat Commun. 8(1):1422), but this sensor was never coupled to a channel in order to specifically measure the activity of the channel as presented in this invention.

[3] = HEK293T cells pre-treated with 10 μM antagonist

T3 sequence (Q8NER1 whole entry): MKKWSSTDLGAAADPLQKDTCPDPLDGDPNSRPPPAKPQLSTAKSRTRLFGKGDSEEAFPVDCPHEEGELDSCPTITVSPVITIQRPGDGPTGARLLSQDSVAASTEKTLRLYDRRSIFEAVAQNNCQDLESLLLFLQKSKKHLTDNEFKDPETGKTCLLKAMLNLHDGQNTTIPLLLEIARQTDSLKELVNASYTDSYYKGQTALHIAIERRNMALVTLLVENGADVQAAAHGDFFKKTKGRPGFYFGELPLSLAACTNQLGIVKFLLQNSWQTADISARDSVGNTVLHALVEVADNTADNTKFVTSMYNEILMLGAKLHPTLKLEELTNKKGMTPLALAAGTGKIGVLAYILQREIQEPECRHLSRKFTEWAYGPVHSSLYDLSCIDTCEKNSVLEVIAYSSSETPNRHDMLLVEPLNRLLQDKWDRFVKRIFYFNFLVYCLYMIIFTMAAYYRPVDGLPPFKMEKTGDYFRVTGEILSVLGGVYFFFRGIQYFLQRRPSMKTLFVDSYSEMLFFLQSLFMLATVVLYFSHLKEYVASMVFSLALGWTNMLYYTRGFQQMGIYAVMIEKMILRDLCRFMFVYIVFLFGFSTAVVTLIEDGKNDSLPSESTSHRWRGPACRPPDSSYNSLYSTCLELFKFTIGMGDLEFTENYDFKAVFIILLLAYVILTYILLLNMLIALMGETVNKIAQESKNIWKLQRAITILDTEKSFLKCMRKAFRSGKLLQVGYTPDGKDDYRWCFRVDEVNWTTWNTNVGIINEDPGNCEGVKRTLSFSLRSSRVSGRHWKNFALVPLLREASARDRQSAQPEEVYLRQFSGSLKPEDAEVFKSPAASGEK
T6 sequence (Q9HBA0 whole entry): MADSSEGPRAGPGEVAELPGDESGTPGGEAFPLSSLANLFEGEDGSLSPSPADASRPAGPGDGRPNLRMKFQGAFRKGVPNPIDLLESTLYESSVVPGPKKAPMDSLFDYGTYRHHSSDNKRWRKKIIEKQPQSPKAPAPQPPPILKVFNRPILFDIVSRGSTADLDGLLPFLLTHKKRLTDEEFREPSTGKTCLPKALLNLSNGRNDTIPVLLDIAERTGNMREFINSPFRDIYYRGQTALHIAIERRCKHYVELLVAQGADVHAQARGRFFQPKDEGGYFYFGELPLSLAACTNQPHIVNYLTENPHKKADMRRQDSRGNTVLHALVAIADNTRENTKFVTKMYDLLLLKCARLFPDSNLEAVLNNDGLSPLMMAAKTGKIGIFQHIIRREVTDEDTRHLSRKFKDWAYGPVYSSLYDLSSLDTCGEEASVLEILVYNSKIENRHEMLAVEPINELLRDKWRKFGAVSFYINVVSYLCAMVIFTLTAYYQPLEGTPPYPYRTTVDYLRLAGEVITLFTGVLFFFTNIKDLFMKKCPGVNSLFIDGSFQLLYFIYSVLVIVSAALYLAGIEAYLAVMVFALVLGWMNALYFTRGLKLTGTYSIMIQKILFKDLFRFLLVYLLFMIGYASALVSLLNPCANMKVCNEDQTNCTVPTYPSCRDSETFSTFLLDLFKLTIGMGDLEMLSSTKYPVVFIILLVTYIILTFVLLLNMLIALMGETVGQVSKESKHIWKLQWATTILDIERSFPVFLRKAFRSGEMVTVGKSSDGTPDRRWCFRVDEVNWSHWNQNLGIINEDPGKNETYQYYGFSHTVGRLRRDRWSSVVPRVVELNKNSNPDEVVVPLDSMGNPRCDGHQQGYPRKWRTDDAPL
T5 sequence (Q7Z2W7 whole entry): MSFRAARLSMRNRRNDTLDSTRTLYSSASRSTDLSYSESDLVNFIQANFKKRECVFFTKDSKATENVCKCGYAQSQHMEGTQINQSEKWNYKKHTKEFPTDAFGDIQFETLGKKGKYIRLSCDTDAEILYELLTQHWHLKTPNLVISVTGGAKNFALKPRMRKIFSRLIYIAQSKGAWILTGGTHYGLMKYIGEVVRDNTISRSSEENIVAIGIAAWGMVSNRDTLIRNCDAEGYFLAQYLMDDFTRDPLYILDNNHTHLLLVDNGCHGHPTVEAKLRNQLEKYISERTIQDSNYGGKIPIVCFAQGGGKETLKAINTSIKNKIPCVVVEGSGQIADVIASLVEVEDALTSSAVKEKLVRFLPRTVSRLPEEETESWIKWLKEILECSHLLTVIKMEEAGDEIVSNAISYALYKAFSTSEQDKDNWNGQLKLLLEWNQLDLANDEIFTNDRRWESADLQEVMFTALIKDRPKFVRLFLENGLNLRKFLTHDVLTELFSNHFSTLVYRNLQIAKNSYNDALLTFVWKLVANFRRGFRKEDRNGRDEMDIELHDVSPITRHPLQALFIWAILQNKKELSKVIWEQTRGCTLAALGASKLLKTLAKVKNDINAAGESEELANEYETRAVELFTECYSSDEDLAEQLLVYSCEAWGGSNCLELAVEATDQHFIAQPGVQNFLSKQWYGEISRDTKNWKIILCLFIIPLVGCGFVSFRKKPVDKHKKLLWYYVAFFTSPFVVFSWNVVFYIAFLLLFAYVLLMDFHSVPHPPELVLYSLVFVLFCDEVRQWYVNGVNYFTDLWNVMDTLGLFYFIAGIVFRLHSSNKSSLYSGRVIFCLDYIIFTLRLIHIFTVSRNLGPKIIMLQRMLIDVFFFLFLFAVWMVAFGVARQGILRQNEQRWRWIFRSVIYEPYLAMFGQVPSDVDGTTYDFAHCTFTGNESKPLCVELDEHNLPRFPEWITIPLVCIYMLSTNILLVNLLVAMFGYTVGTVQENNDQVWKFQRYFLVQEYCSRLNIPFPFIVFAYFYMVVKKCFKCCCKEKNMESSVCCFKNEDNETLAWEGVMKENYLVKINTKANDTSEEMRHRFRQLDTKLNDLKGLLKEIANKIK
T8 sequence (Q8NER1 whole entry): as the sequence (Q8NER1 whole entry) above
T9 sequence (Q13224 27-1484, other chains not shown): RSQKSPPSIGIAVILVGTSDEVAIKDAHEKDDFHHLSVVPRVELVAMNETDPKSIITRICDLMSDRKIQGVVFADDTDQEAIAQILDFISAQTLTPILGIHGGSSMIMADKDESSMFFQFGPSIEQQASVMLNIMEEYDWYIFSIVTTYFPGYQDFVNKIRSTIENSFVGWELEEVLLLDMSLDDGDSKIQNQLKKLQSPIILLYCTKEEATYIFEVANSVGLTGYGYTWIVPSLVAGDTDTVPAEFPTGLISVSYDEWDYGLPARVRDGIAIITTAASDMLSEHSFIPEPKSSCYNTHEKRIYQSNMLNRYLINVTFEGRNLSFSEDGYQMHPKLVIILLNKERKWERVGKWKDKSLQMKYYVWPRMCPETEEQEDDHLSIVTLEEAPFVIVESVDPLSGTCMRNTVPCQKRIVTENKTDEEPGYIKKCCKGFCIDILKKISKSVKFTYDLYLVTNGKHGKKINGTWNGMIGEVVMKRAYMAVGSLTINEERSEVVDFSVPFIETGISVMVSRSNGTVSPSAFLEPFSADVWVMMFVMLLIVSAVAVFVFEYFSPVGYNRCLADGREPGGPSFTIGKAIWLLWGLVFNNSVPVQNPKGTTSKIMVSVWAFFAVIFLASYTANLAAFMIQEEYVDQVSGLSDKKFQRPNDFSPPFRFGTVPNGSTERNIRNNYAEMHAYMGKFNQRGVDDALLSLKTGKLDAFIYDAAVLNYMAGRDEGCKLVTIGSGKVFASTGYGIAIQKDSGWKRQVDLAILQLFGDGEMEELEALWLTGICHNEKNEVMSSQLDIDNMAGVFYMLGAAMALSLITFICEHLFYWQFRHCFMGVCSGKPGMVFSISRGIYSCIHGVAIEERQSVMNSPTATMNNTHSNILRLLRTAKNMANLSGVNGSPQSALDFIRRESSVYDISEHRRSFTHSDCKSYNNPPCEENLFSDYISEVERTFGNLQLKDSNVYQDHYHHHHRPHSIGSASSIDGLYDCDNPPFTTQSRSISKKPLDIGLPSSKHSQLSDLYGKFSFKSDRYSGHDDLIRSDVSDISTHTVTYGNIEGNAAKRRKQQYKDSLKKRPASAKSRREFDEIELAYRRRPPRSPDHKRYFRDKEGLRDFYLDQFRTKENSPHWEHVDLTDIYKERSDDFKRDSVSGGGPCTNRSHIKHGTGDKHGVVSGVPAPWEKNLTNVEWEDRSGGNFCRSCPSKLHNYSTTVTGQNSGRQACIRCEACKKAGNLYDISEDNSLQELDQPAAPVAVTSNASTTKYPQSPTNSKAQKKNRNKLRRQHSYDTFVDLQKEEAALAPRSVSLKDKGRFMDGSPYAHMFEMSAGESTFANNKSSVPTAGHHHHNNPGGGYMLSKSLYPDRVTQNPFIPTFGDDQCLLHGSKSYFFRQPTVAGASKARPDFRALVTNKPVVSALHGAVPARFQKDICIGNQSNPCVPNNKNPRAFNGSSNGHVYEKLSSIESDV

## c1ccc(-c2nn[nH]n2)c(Nc2cccc3c2CCCC3)c1 [BL1249]
TREK1
  change of basal BRET: dose-dependently increased the basal BRET

## [Cl-].[K+] [KCl]
KiR6.1
  change of BRET signal: increase of the BRET signal

## CC(C)NCCN(C(C)C)S(=O)(=O)c1ccc(Cl)cc1Cl [RN1734]
TRPV1 ion channel
  inhibition of CAPS-induced BRET increase: failed to inhibit

## CC1(C)[C@H](C(=O)O[C@H](C#N)c2cccc(Oc3ccccc3)c2)[C@@H]1C=C(Br)Br [Deltamethrin]
NaV1.8
  change of BRET signal: decrease of the BRET signal

## COc1cc(CN(CCN)C(=O)c2cccs2)ccc1OCc1ccccc1.Cl [MBB]
TRPM8; [3]
  effect on agonist (WS12) potency: right-shifted the corresponding agonist potency to higher values

## CC(C)C[C@H](NC(=O)c1cc2ccccc2s1)C(=O)N1CCN(C(=O)[C@H](CO)NS(=O)(=O)c2ccc(Cl)cc2Cl)CC1 [GSK1016790A]
TRPV4; HEK293T cells, FIG. 9A
  change of BRET signal by agonist: dose-dependently increased

## Clc1cccc(Cl)c1CSc1nnc(-c2cnccn2)s1 [YODA1]
PIEZO1 channel
  change of BRET signal by agonist: dose-dependently increased

## CC(=O)Nc1nc2c(Oc3cc(-c4ccc(C(F)(F)F)cc4)ncn3)cccc2s1 [AMG517]
TRPV1 channel; FIG. 4A
  effect on dose-response to CAPS (antagonism): shifted the dose-response to CAPS to the right
TRPV1 ion channel
  inhibition of CAPS-induced BRET increase: inhibited the CAPS-induced BRET increase

## COc1cc(CNC(=O)CCCC/C=C/C(C)C)ccc1O [CAPS, Capsaïcin]
TRPV1 ion channel; kinetic measurement, FIG. 8A
  change of basal BRET after exposure: dramatically increased with first-order kinetics

## CN[C@H](CC(=O)O)C(=O)O [NMDA, N-methyl-D-aspartate]
[1]
  EC50: 12.3 µM
NR1 subunit
  modulation of BRET signal, NR1 probe alone: not modulated

## Cc1c(C(=O)Nc2cccc(C(F)(F)F)c2)cc(-c2ccccc2)n1CCCN1CCOCC1 [HC060747]
TRPV4; [3]
  effect on agonist (GSK1016790A) potency: right-shifted the corresponding agonist potency to higher values

## COc1ccc(NC(=O)[C@@H]2C[C@H](C)CC[C@H]2C(C)C)cc1 [WS12]
TRPM8; HEK293T cells, FIG. 9B
  change of BRET signal by agonist: dose-dependently increased

## C[C@H](CCC(=O)O)C[C@H](C)C[C@H](C)C(=O)/C=C(\O)[C@H](C)C[C@H](C)C/C=C/[C@@H](C)[C@@H](O)[C@@H](C)[C@@H](O)C[C@@H]1CC[C@@](C)([C@H]2CC[C@@](C)([C@@H](C)O)O2)O1 [ionomycin]
[2]
  change of BRET signal (potassium efflux): decrease of the BRET signal
TRPV1 channel; TRPV1-nLuc-Calflux-YFP/mNeonGreen probe
  change of BRET signal on stimulation: marginal increase
